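Cultured in 96-well plates, cells were exposed to test compound for 48 hours across five concentrations. The concentration for full growth arrest is given as TGI.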
Legend:
Test in all cases: NCI tumour cell line growth inhibition, 48 h
M14 melanoma = system: M14 melanoma
MOLT-4 leukemia = system: MOLT-4 leukemia
ACHN renal = system: ACHN renal
DMS 273 small cell lung = system: DMS 273 small cell lung
K-562 leukemia = system: K-562 leukemia
SF-295 CNS = system: SF-295 CNS
OVCAR-3 ovarian = system: OVCAR-3 ovarian
RPMI-8226 leukemia = system: RPMI-8226 leukemia
DMS 114 small cell lung = system: DMS 114 small cell lung
KM20L2 colon = system: KM20L2 colon
HOP-18 NSCLC = system: HOP-18 NSCLC
HOP-62 NSCLC = system: HOP-62 NSCLC
DLD-1 colon = system: DLD-1 colon
CAKI-1 renal = system: CAKI-1 renal
EKVX NSCLC = system: EKVX NSCLC
CCRF-CEM leukemia = system: CCRF-CEM leukemia
UACC-257 melanoma = system: UACC-257 melanoma
HOP-92 NSCLC = system: HOP-92 NSCLC
UACC-62 melanoma = system: UACC-62 melanoma
M19-MEL melanoma = system: M19-MEL melanoma
TK-10 renal = system: TK-10 renal
SK-MEL-28 melanoma = system: SK-MEL-28 melanoma
NCI-H460 lung = system: NCI-H460 lung
NCI-H23 lung = system: NCI-H23 lung
SNB-78 CNS = system: SNB-78 CNS
OVCAR-8 ovarian = system: OVCAR-8 ovarian
OVCAR-5 ovarian = system: OVCAR-5 ovarian
HCC-2998 colon = system: HCC-2998 colon
U251 CNS = system: U251 CNS
LOX IMVI melanoma = system: LOX IMVI melanoma
HCT-116 colon = system: HCT-116 colon
LXFL 529 NSCLC = system: LXFL 529 NSCLC
786-0 renal = system: 786-0 renal
MALME-3M melanoma = system: MALME-3M melanoma
SK-MEL-2 melanoma = system: SK-MEL-2 melanoma
SNB-19 CNS = system: SNB-19 CNS
SK-OV-3 ovarian = system: SK-OV-3 ovarian
UO-31 renal = system: UO-31 renal
SK-MEL-5 melanoma = system: SK-MEL-5 melanoma
OVCAR-4 ovarian = system: OVCAR-4 ovarian
NCI-H522 lung = system: NCI-H522 lung
A549 NSCLC = system: A549 NSCLC
IGROV1 ovarian = system: IGROV1 ovarian
HL-60(TB) leukemia = system: HL-60(TB) leukemia
SW-620 colon = system: SW-620 colon
KM12 colon = system: KM12 colon
COLO 205 colon = system: COLO 205 colon
HT29 colon = system: HT29 colon
A498 renal = system: A498 renal
SF-539 CNS = system: SF-539 CNS
SNB-75 CNS = system: SNB-75 CNS
NCI-H226 lung = system: NCI-H226 lung
SN12C renal = system: SN12C renal
HCT-15 colon = system: HCT-15 colon
SF-268 CNS = system: SF-268 CNS

In the case of `COC(=O)C1CCc2c(OC)ccc(OC)c2C1=O` (stereo not drawn), the TGI (M14 melanoma) is reported as greater than 100 µM, the TGI (MOLT-4 leukemia) is reported as greater than 100 µM and the TGI (ACHN renal) is reported as greater than 100 µM. The TGI (DMS 273 small cell lung) was greater than 100 µM, the TGI (K-562 leukemia) was greater than 100 µM and the TGI (SF-295 CNS) was greater than 100 µM. For the same compound, the TGI (OVCAR-3 ovarian) was greater than 100 µM, the TGI (RPMI-8226 leukemia) was greater than 100 µM and the TGI (DMS 114 small cell lung) was greater than 100 µM. For the same compound, the TGI (KM20L2 colon) was greater than 100 µM, the TGI (HOP-18 NSCLC) was greater than 100 µM and the TGI (HOP-62 NSCLC) was greater than 100 µM. It also gave a TGI (DLD-1 colon) greater than 100 µM, a TGI (CAKI-1 renal) greater than 100 µM and a TGI (EKVX NSCLC) greater than 100 µM. It also gave a TGI (CCRF-CEM leukemia) greater than 100 µM, a TGI (UACC-257 melanoma) greater than 100 µM and a TGI (HOP-92 NSCLC) greater than 100 µM. For the same compound, the TGI (UACC-62 melanoma) was greater than 100 µM, the TGI (M19-MEL melanoma) was greater than 100 µM and the TGI (TK-10 renal) was greater than 100 µM. For the same compound, the TGI (SK-MEL-28 melanoma) was greater than 100 µM, the TGI (NCI-H460 lung) was greater than 100 µM and the TGI (NCI-H23 lung) was greater than 100 µM. The TGI (SNB-78 CNS) was greater than 100 µM, the TGI (OVCAR-8 ovarian) was greater than 100 µM and the TGI (OVCAR-5 ovarian) was greater than 100 µM. It also gave a TGI (HCC-2998 colon) greater than 100 µM, a TGI (U251 CNS) greater than 100 µM and a TGI (LOX IMVI melanoma) greater than 100 µM. The TGI (HCT-116 colon) was greater than 100 µM, the TGI (LXFL 529 NSCLC) was greater than 100 µM and the TGI (786-0 renal) was greater than 100 µM. For the same compound, the TGI (MALME-3M melanoma) was greater than 100 µM, the TGI (SK-MEL-2 melanoma) was greater than 100 µM and the TGI (SNB-19 CNS) was greater than 100 µM. It also gave a TGI (SK-OV-3 ovarian) greater than 100 µM, a TGI (UO-31 renal) greater than 100 µM and a TGI (SK-MEL-5 melanoma) greater than 100 µM. The TGI (OVCAR-4 ovarian) was greater than 100 µM, the TGI (NCI-H522 lung) was greater than 100 µM and the TGI (A549 NSCLC) was greater than 100 µM. It also gave a TGI (IGROV1 ovarian) greater than 100 µM, a TGI (HL-60(TB) leukemia) greater than 100 µM and a TGI (SW-620 colon) greater than 100 µM. The TGI (KM12 colon) was greater than 100 µM, the TGI (COLO 205 colon) was greater than 100 µM and the TGI (HT29 colon) was greater than 100 µM. For the same compound, the TGI (A498 renal) was greater than 100 µM and the TGI (SF-539 CNS) was greater than 100 µM.

`Cc1ccc(C(=O)/C=C/c2ccccc2Cl)cc1` showed a TGI (M14 melanoma) of 31.4 µM, a TGI (MOLT-4 leukemia) of 56.1 µM and a TGI (ACHN renal) of 29.4 µM. For the same compound, the TGI (DMS 273 small cell lung) was 29.4 µM, the TGI (K-562 leukemia) was 46 µM and the TGI (SF-295 CNS) was 39.8 µM. For the same compound, the TGI (OVCAR-3 ovarian) was 31 µM, the TGI (RPMI-8226 leukemia) was 44.4 µM and the TGI (DMS 114 small cell lung) was 35.5 µM. The TGI (KM20L2 colon) was 30.9 µM, the TGI (HOP-18 NSCLC) was 76.1 µM and the TGI (HOP-62 NSCLC) was greater than 100 µM. For the same compound, the TGI (DLD-1 colon) was 36 µM, the TGI (CAKI-1 renal) was 34.6 µM and the TGI (EKVX NSCLC) was 33.6 µM. It also gave a TGI (CCRF-CEM leukemia) of 42.6 µM, a TGI (UACC-257 melanoma) of 33.6 µM and a TGI (SNB-75 CNS) of 44.8 µM. The TGI (HOP-92 NSCLC) was 63.5 µM, the TGI (UACC-62 melanoma) was 27.7 µM and the TGI (M19-MEL melanoma) was 33.5 µM. The TGI (TK-10 renal) was 61.7 µM, the TGI (SK-MEL-28 melanoma) was 29.2 µM and the TGI (NCI-H460 lung) was 29.1 µM. The TGI (NCI-H23 lung) was 40.1 µM, the TGI (SNB-78 CNS) was 46.8 µM and the TGI (OVCAR-8 ovarian) was 29.6 µM. The TGI (NCI-H226 lung) was 61 µM, the TGI (OVCAR-5 ovarian) was 41.9 µM and the TGI (HCC-2998 colon) was 33.2 µM. For the same compound, the TGI (U251 CNS) was 30.3 µM, the TGI (SN12C renal) was 39.3 µM and the TGI (HCT-116 colon) was 25.6 µM. It also gave a TGI (LXFL 529 NSCLC) of 28.7 µM, a TGI (786-0 renal) of 29.7 µM and a TGI (MALME-3M melanoma) of 53.6 µM. It also gave a TGI (SNB-19 CNS) of 32.5 µM, a TGI (SK-OV-3 ovarian) of 99.5 µM and a TGI (UO-31 renal) of 32.8 µM. It also gave a TGI (SK-MEL-5 melanoma) of 38.5 µM, a TGI (OVCAR-4 ovarian) of 34.6 µM and a TGI (NCI-H522 lung) of 26.9 µM. For the same compound, the TGI (A549 NSCLC) was 85.4 µM, the TGI (HCT-15 colon) was 29.1 µM and the TGI (IGROV1 ovarian) was 32.9 µM. For the same compound, the TGI (HL-60(TB) leukemia) was 42.8 µM, the TGI (SW-620 colon) was 27 µM and the TGI (KM12 colon) was 30.2 µM. The TGI (COLO 205 colon) was 47.2 µM, the TGI (HT29 colon) was 29.7 µM and the TGI (A498 renal) was 72.5 µM. For the same compound, the TGI (SF-268 CNS) was 48 µM and the TGI (SF-539 CNS) was 38.9 µM.

From PubChem BioAssay (NCI)
